4 molecules from patent publication US11185539B2 (priority 2017, dated 2021) can be followed below.

Each structure is given as a SMILES string.

For data set [1], the system named is primary human cardiac fibroblasts (HCFs). The data set can be described thus: Proliferation of primary human cardiac fibroblasts, BrdU-ELISA. The data set is classed as cell-based. The note with it: 24 h; for proliferation of HCFs (derivative screen): 10 μM, DMSO solvent control; for proliferation of primary HCFs: 0.1, 1, 10 μM (Lycorine 1, 5, 10 μM), DMSO control. The method, then: HCFs were incubated with 0.1 μM, 1 μM and 10 μM Bufalin, Gitoxigenin, Anisomycin and Geldanamycin as well as with 1 μM, 5 μM and 10 μM Lycorine for 24 h and proliferation of HCFs was measured by BrdU-ELISA (see FIG. 1). Due to major drawbacks as a drug candidate, Geldanamycin was not included in the follow-up studies, in particular in the in vivo experiments.
HCFs and HL-1 cells were treated with Bufalin, Gitoxigenin, Lycorine and Anisomycin for 24 h with the same concentrations as indicated in Example 1 and proliferation of HCFs and cardiomyocyte cell line HL-1 cells was measured by BrdU-ELISA, DMSO refers as a control (see FIG. 2B, 3B, 4B, 5B). The cell proliferation ELISA is a colorimetric alternative to quantitate cell proliferation based on the measurement of BrdU incorporation during DNA synthesis in proliferating cells. After its incorporation into DNA, BrdU is detected by immunoassay by using antibodies being highly specific for BrdU. First, HCFs and/or HL-1 cells are cultured together with various dilutions of test substances (e.g. mitogens, growth factors, cytokines and test compounds such as Bufalin, Gitoxigenin, Lycorine and Anisomycin as mentioned above etc.) in a 96-well in a final volume of 100 μl/well in a humified atmosphere of 37° C. Afterwards, 10 μl/well BrdU labeling solution is added to the cells being cultured in 100 μl/well (final concentration: 10 μM BrdU). Then, cells were re-incubated for additional 2 to 24 h at 37° C. Next, labeling solution is removed and 200 μl/well FixDenat is added to the cells and incubated for 30 min at 15 to 25° C. Then, 100 μl/well anti-BrdU-POD working solution is added and incubated for approximately 90 min, after FixDenat is removed. Next, antibody conjugate is removed and wells are washed with 200 μl-300 μl/well Washing solution (PBS, 1×). After the washing solution is removed, 100 μl/well Substrate solution is added and it is incubated again until color development is sufficient for photometric detection. Further, HCFs were treated with said compounds (Lycorine: 5 μM, Bufalin: 1 μM, Gitoxigenin: 1 μM and Anisomycin: 1 μM) for 24 h as indicated again and subjected to FACS analysis after Annexin-7AAD-staining (see FIG. 2C, 3C, 4C, 5C). After the treatment with said compounds, annexin-7AAD-staining starts with inducing apoptosis in HCFs by a desired method, known to the person skilled in the art, a negative control (w/o induction and staining) and a positive control (f. ex. 500 μM H2O2 or 3 μM Staurosporin) is also needed. Then, the medium with HCFs is transferred into a falcon, washed with PBS and trypsinized. Everything is centrifuged for 5 min at 300×g and then the supernatant is aspirated. The pellet is re-suspended in 200 μl Annexin Red/7AAD Working Solution (1:20, 5 μl Annexin Red/7AAD+195 μl 1× Assay Buffer) and transferred into an Easy Cap Eppendorf tube. After incubation of 15 min at 37° C., it is centrifuged at room temperature (RT) for 5 min at 300×g. Then, the supernatant is aspirated, the pellet washed once with 200 μl 1× Assay Buffer and centrifuged again at RT for 5 min at 300×g. Again, the supernatant is aspirated and the pellet is re-suspended in 200 μl Annexin Red/7AAD working solution and incubated again at RT for 5 min in the dark. Samples are now ready for acquisition on a flow cytometer (blue and red laser).
The cells were incubated for 24 h with 10 μM Bufalin and Lycorine and with 10 μM derivatives of Bufalin (derivatives 3, 5, 6, 7, 8, 9, 10, 11, 12, 13, 14, 16, 17, 18 and 25) and Lycorine (derivative 1, 2, 4, 15, 19, 20, 21, 22, 23, 24 and 26). Then, proliferation of HCFs was measured by BrdU-ELISA (see FIG. 31).

In data set [2] the test system is C57BL/6N mice with angiotensin II-induced diastolic heart failure. The data set can be described thus: Picrosirius-red collagen staining of heart sections, therapeutic model (eight weeks). The note with it: therapeutic: i.p. every other day from week 2 of angiotensin II; week 8. The data set is classed as in vivo. As to the method: (§1) Diastolic heart failure (HF) was induced in C57BL/6N mice via implantation of angiotensin II filled minipumps (see Example 3). In difference to Example 3, C57BL/6N mice were infused with 3 mg/kg/day angiotensin II by subcutaneously implanted minipumps for eight weeks.
(§2) Next, Bufalin or Lycorine (dissolved in DMSO) or the solvent DMSO alone (as control) were injected intraperitoneally (i.p) every other day until the endpoint, starting two weeks after start of angiotensin II-infusion (see FIG. 11).
Additionally, eight weeks after the operation, histological sections of the hearts were stained for collagen using picrosirius-red (n=7-12 per group) after treatment with Bufalin or Lycorine.

The test system of a further data set is kidney and liver. In words: Kidney and liver histology (HE, PAS), therapeutic model, eight weeks. The data set is classed as in vivo, mice. Particulars: therapeutic approach; Bufalin 0.5, Lycorine 4.5 mg/kg; eight weeks after the operation. The method, then:
HF was induced in mice (Example 5) and Bufalin (0.5 mg/kg) as well as Lycorine (4.5 mg/kg) were injected as indicated in Example 5. Eight weeks after the operation, kidneys and livers were subjected to histological assessment via Hematoxylin and Eosin (HE) and Periodic acid-Schiff (PAS) stain (n=4 per group).

Data set [3] deals with rat renal fibroblast cell line NRK49F. In words: Proliferation of rat renal fibroblast cell line NRK49F, BrdU-ELISA. The data set is classed as cell-based. The note with it: 24 h; for proliferation of renal fibroblasts (NRK49F): Lycorine 1, 5, 10 μM, Bufalin 0.1, 1, 10 μM. The method, then:
(§3) Cells of the rat renal fibroblast cell line NRK49F and primary human pulmonary fibroblasts (HPFs) were treated with Lycorine (1 μM, 5 μM and 10 μM) or Bufalin (0.1 μM, 1 μM, 10 μM) for 24 h and proliferation of respective fibroblasts was measured by BrdU-ELISA (see FIG. 39).

Data set [4] has as its system C57BL/6N mice with angiotensin II-induced diastolic heart failure. The data set can be described thus: Hemodynamic measurement (MILLAR), therapeutic model. The data set is classed as in vivo. Particulars: therapeutic: Bufalin 0.5 mg/kg, Lycorine 4.5 mg/kg; week 8. The method, then:
as §1, §2
Diastolic HF was induced in C57BL/6 mice and Bufalin or Lycorine were injected as indicated in Example 5. Eight weeks after the operation, hemodynamic measurements of the mice were assessed (n=6-7 per group) by treating the mice with said compounds (Bufalin: 0.5 mg/kg, Lycorine 4.5 mg/kg).

The nature of data set [5]: Myocardial and plasma concentrations, LC and QTOF-MS. The data set is classed as in vivo, mice. The note with it: 9 minutes after injection; Bufalin 0.5, Lycorine 4.5 mg/kg. As to the method:
Plasma and hearts of C57BL/6N mice were harvested 9 minutes after injection with natural substances Bufalin (0.5 mg/kg) or Lycorine (4.5 mg/kg) (dissolved in DMSO). After extraction of the substances, Bufalin and Lycorine were quantified by liquid chromatography (LC) and quadrupole time-of-flight mass spectrometry (QTOF-MS) (see FIG. 30).

Data set [6] deals with primary human pulmonary fibroblasts (HPFs). In words: Proliferation of primary human pulmonary fibroblasts, BrdU-ELISA. The data set is classed as cell-based. The note with it: 24 h; for proliferation of pulmonary fibroblasts (HPFs): Lycorine 1, 5, 10 μM, Bufalin 0.1, 1, 10 μM. The method, then:
as §3

Take `C[C@]12CC[C@H](O)C[C@H]1CC[C@@H]1[C@@H]2CC[C@]2(C)[C@@H](c3ccc(=O)oc3)CC[C@]12O` [Bufalin]: in data set [1], the “proliferation of HCFs (derivative screen)” value is given as “proliferation is prevented” and the “proliferation of primary HCFs” value is “Dose-dependent inhibitory effects”. Besides, in data set [2], the “collagen deposition in heart sections (picrosirius-stained areas)” value is “reduction of collagen deposition”. Moreover, the “kidney and liver morphology (HE, PAS)” value in the data set on kidney and liver was “does not induce necrosis, inflammation or any morphological changes”. Besides, the “proliferation of renal fibroblasts (NRK49F)” value in data set [3] was “significantly inhibits only proliferation of pulmonary fibroblasts”. In addition, the “end-diastolic pressure-volume relationship (EDPVR)” value in data set [4] is recorded as “significant reduction”. Also, the “levels in the myocardium compared to the plasma” value in data set [5] is “higher levels in (A) the myocardium as compared to (B) the plasma”. In data set [6], the “most effective amount (pulmonary fibroblasts)” value was found to be 10 µM and the “proliferation of pulmonary fibroblasts (HPFs)” value is on record as “significantly inhibits”.
Regarding `C[C@]12CC[C@H](O)C[C@H]1CC[C@@H]1[C@@H]2CC[C@]2(C)[C@@H](C3=CC(=O)OC3)[C@@H](O)C[C@]12O` [Gitoxigenin], the “proliferation of primary HCFs” value in data set [1] is listed as “Dose-dependent inhibitory effects”.
Take `O[C@H]1[C@H]2c3cc4c(cc3CN3CCC(=C[C@@H]1O)[C@H]23)OCO4` [Lycorine]: in data set [1], the “proliferation of HCFs (derivative screen)” value is “proliferation is prevented” and the “proliferation of primary HCFs” value is “Dose-dependent inhibitory effects”. The “collagen deposition in heart sections (picrosirius-stained areas)” value in data set [2] is reported as “reduction of collagen deposition”. The “kidney and liver morphology (HE, PAS)” value in the data set with kidney and liver is on record as “does not induce necrosis, inflammation or any morphological changes”. Moreover, in data set [3], the “most effective amount (renal fibroblasts)” value was 10 µM and the “proliferation of renal fibroblasts (NRK49F)” value is “significantly inhibits proliferation”. Also, the “end-diastolic pressure-volume relationship (EDPVR)” value in data set [4] was “significant reduction”. Moreover, in data set [5], the “levels in the myocardium compared to the plasma” value is “higher levels in (A) the myocardium as compared to (B) the plasma”. In data set [6], the “most effective amount (pulmonary fibroblasts)” value was found to be 10 µM and the “proliferation of pulmonary fibroblasts (HPFs)” value is listed as “significantly inhibits proliferation”.
Consider `COc1ccc(C[C@H]2NC[C@H](O)[C@H]2OC(C)=O)cc1` [Anisomycin], for which the “proliferation of primary HCFs” value in data set [1] was “Dose-dependent inhibitory effects”.
